What was measured:
Type in all cases: in vivo, SD rats
Conditions in all cases: Benzbromarone group 20 mg/kg
hyperuricemia model [1] = experiment: Uric acid reducing effect: serum uric acid in high-fructose hyperuricemia model rats (uricase colorimetric method)
Description: (§1) SD rats were stratified by weight using random number table method, and each layer was divided into a normal group (10 rats), a fructose modeling group (50 rats) and a purine modeling group (24 rats) using random number table method. Tap water was administered to the normal group; a 10% (w/v) fructose solution was administered to the fructose modeling group for modeling; and for the purine modeling group, tap water was administered for drinking, 500 mg/kg of hypoxanthine + 100 mg/kg of nicotinic acid was administered by gastric perfusion according to body weight once a day, and the volume of perfusion was 10 ml/kg. The food and water consumption of rats were recorded daily, the body weights were weighed every 7 days, and blood was taken by shearing the tail tip on the next day of weighing. […] Among them, 0.5% CMC-Na was administered to the normal group and the model group by gastric perfusion, and respective drugs dissolved in 0.5% CMC-Na were administered to the other administration groups by gastric perfusion. The perfusion was performed once every morning. […] During the experiment, since there was no significant difference in blood uric acid level between the purine modeling group and the normal group from beginning to end, the modeling of the hyperuricemia model in rats was not successful, therefore, the rats were not further grouped. Table 1 Gastric perfusion dosages of rats in each group Every 7 days during the experiment, the body weights of the animals were weighed and recorded, blood was taken from the tail vein, and serum was separated by centrifugation. The uric acid (UA), urea nitrogen (BUN), creatinine (CRE), xanthine oxidase (XOD), adenosine deaminase (ADA) and guanine deaminase (GuDa) in serum were detected. On day 35 of the experiment, the 24-hour urine of the rats was collected, the urine volume was measured, the pH value was determined, and the urinary uric acid level, urinary creatinine level, and urinary urea nitrogen level were detected. After the experiment was terminated, the rats were sacrificed, and the right kidneys were taken and weighed. The specific determination method of each index was as follows. • ① Detecting serum uric acid and urinary uric acid by uricase colorimetric method: uric acid was catalyzed by uricase to produce allantoin and hydrogen peroxide (H2O2); […] A serum or urine sample was taken. […] Jaffe reaction occurred between the creatinine in the supernatant of serum from which protein was removed or the creatinine in clear urine and picric acid to produce an orange adduct. A serum or urine sample was taken. […] A serum or urine sample was taken. […] In the presence of an electron acceptor and a developer, a purple red conjugate was produced, and the activity of xanthine oxidase could be calculated according to the amount of the latter produced. A serum sample was taken. According to the operating instruction of Xanthine Oxidase Assay Kit, under the conditions of a cuvette the light path of 1 cm and a wavelength of 530 nm, double distilled water was used for zero calibration; the absorbance was determined by a UV spectrophotometer, and the activity of xanthine oxidase was obtained. • ⑤ Detecting adenosine deaminase (ADA) by enzymatic colorimetric method: adenine riboside was catalyzed by adenosine deaminase to hydrolyze and produce hypoxanthine riboside and ammonia, and the produced ammonia was developed. Therefore, the activity of serum adenosine deaminase could be calculated. A serum sample was taken. […]

hyperuricemia model [2] = experiment: Serum urea nitrogen (urease method) and serum creatinine (picric acid method) in hyperuricemia model rats
Description: as §1

guanine deaminase (GuDa) = experiment: Serum guanine deaminase activity in hyperuricemia model rats (single enzyme reagent method)
Description: SD rats were stratified by weight using random number table method, and each layer was divided into a normal group (10 rats), a fructose modeling group (50 rats) and a purine modeling group (24 rats) using random number table method. Tap water was administered to the normal group; a 10% (w/v) fructose solution was administered to the fructose modeling group for modeling; and for the purine modeling group, tap water was administered for drinking, 500 mg/kg of hypoxanthine + 100 mg/kg of nicotinic acid was administered by gastric perfusion according to body weight once a day, and the volume of perfusion was 10 ml/kg. The food and water consumption of rats were recorded daily, the body weights were weighed every 7 days, and blood was taken by shearing the tail tip on the next day of weighing. […] Among them, 0.5% CMC-Na was administered to the normal group and the model group by gastric perfusion, and respective drugs dissolved in 0.5% CMC-Na were administered to the other administration groups by gastric perfusion. The perfusion was performed once every morning. […] Table 1 Gastric perfusion dosages of rats in each group Every 7 days during the experiment, the body weights of the animals were weighed and recorded, blood was taken from the tail vein, and serum was separated by centrifugation. The uric acid (UA), urea nitrogen (BUN), creatinine (CRE), xanthine oxidase (XOD), adenosine deaminase (ADA) and guanine deaminase (GuDa) in serum were detected. On day 35 of the experiment, the 24-hour urine of the rats was collected, the urine volume was measured, the pH value was determined, and the urinary uric acid level, urinary creatinine level, and urinary urea nitrogen level were detected. […] In the presence of an electron acceptor and a developer, a purple red conjugate was produced, and the activity of xanthine oxidase could be calculated according to the amount of the latter produced. […] Therefore, the activity of serum adenosine deaminase could be calculated. […]

[3] = system: adenosine deaminase (ADA); experiment: Serum adenosine deaminase activity in hyperuricemia model rats (enzymatic colorimetric method)
Description: (§2) SD rats were stratified by weight using random number table method, and each layer was divided into a normal group (10 rats), a fructose modeling group (50 rats) and a purine modeling group (24 rats) using random number table method. Tap water was administered to the normal group; a 10% (w/v) fructose solution was administered to the fructose modeling group for modeling; and for the purine modeling group, tap water was administered for drinking, 500 mg/kg of hypoxanthine + 100 mg/kg of nicotinic acid was administered by gastric perfusion according to body weight once a day, and the volume of perfusion was 10 ml/kg. The food and water consumption of rats were recorded daily, the body weights were weighed every 7 days, and blood was taken by shearing the tail tip on the next day of weighing. […] Table 1 Gastric perfusion dosages of rats in each group Every 7 days during the experiment, the body weights of the animals were weighed and recorded, blood was taken from the tail vein, and serum was separated by centrifugation. The uric acid (UA), urea nitrogen (BUN), creatinine (CRE), xanthine oxidase (XOD), adenosine deaminase (ADA) and guanine deaminase (GuDa) in serum were detected. […] In the presence of an electron acceptor and a developer, a purple red conjugate was produced, and the activity of xanthine oxidase could be calculated according to the amount of the latter produced. […]

xanthine oxidase (XOD) = experiment: Serum xanthine oxidase activity in hyperuricemia model rats (enzymatic colorimetric method)
Description: as §2

[4] = Right kidney weight of rats on day 35
Description: SD rats were stratified by weight using random number table method, and each layer was divided into a normal group (10 rats), a fructose modeling group (50 rats) and a purine modeling group (24 rats) using random number table method. Tap water was administered to the normal group; a 10% (w/v) fructose solution was administered to the fructose modeling group for modeling; and for the purine modeling group, tap water was administered for drinking, 500 mg/kg of hypoxanthine + 100 mg/kg of nicotinic acid was administered by gastric perfusion according to body weight once a day, and the volume of perfusion was 10 ml/kg. The food and water consumption of rats were recorded daily, the body weights were weighed every 7 days, and blood was taken by shearing the tail tip on the next day of weighing. […]
Every 7 days during the experiment, the body weights of the animals were weighed and recorded, blood was taken from the tail vein, and serum was separated by centrifugation. The uric acid (UA), urea nitrogen (BUN), creatinine (CRE), xanthine oxidase (XOD), adenosine deaminase (ADA) and guanine deaminase (GuDa) in serum were detected. On day 35 of the experiment, the 24-hour urine of the rats was collected, the urine volume was measured, the pH value was determined, and the urinary uric acid level, urinary creatinine level, and urinary urea nitrogen level were detected. […]

[5] = Body weight of rats during the 35-day hyperuricemia experiment
Description: SD rats were stratified by weight using random number table method, and each layer was divided into a normal group (10 rats), a fructose modeling group (50 rats) and a purine modeling group (24 rats) using random number table method. Tap water was administered to the normal group; a 10% (w/v) fructose solution was administered to the fructose modeling group for modeling; and for the purine modeling group, tap water was administered for drinking, 500 mg/kg of hypoxanthine + 100 mg/kg of nicotinic acid was administered by gastric perfusion according to body weight once a day, and the volume of perfusion was 10 ml/kg. The food and water consumption of rats were recorded daily, the body weights were weighed every 7 days, and blood was taken by shearing the tail tip on the next day of weighing.
Among them, 0.5% CMC-Na was administered to the normal group and the model group by gastric perfusion, and respective drugs dissolved in 0.5% CMC-Na were administered to the other administration groups by gastric perfusion. The perfusion was performed once every morning. The dosages of administration were as follows: the dosage of benzbromarone was 20 mg/kg, the large-, medium- and small-dosages of the extract of the present disclosure were 1.9 g/kg, 0.95 g/kg, and 0.475 g/kg, respectively, the volume of administration was 15 ml/kg, and the experiment lasted for 35 days in total. During the experiment, since there was no significant difference in blood uric acid level between the purine modeling group and the normal group from beginning to end, the modeling of the hyperuricemia model in rats was not successful, therefore, the rats were not further grouped. Table 1 Gastric perfusion dosages of rats in each group
Every 7 days during the experiment, the body weights of the animals were weighed and recorded, blood was taken from the tail vein, and serum was separated by centrifugation. The uric acid (UA), urea nitrogen (BUN), creatinine (CRE), xanthine oxidase (XOD), adenosine deaminase (ADA) and guanine deaminase (GuDa) in serum were detected. On day 35 of the experiment, the 24-hour urine of the rats was collected, the urine volume was measured, the pH value was determined, and the urinary uric acid level, urinary creatinine level, and urinary urea nitrogen level were detected. After the experiment was terminated, the rats were sacrificed, and the right kidneys were taken and weighed.

hyperuricemia model [6] = experiment: 24-hour urine indices on day 35 in hyperuricemia model rats (volume, pH, uric acid, creatinine, urea nitrogen, clearances); parameters: Uric acid clearance / Creatinine clearance: unit not given here
Description: as §1

right kidney Weight [4]: 1.43 ± 0.10^ΔΔ g
Structure (SMILES): CCc1oc2ccccc2c1C(=O)c1cc(Br)c(O)c(Br)c1 [Benzbromarone, benzbromarone]
serum uric acid level (hyperuricemia model [1]; Day 0, modeling period): 75.83 ± 38.77 µmol/L
serum uric acid level (hyperuricemia model [1]; Day 7, modeling period): 94.75 ± 25.26 µmol/L
serum uric acid level (hyperuricemia model [1]; Day 14, modeling period): 65.57±27.48^Δ µmol/L
serum uric acid level (hyperuricemia model [1]; Day 14, modeling period, listed as benzbromarone): significant decrease
serum uric acid level (hyperuricemia model [1]; Day 21, administration period): 68.45 ± 22.20 µmol/L
serum uric acid level (hyperuricemia model [1]; Day 28, administration period): 79.65±24.68^Δ µmol/L
serum uric acid level (hyperuricemia model [1]; Day 28, administration period, listed as benzbromarone): significant decrease
serum uric acid level (hyperuricemia model [1]; Day 35, administration period): 85.66±18.37^Δ µmol/L
serum uric acid level (hyperuricemia model [1]; Day 35, administration period, listed as benzbromarone): significant decrease
Serum creatinine (hyperuricemia model [2]; Day 21): 99.21 ± 17.50 µmol/L
Serum urea nitrogen (hyperuricemia model [2]; Day 21): 5.73 ± 1.02 mM
Serum creatinine (hyperuricemia model [2]; Day 35): 74.54±25.76^Δ µmol/L
Serum urea nitrogen (hyperuricemia model [2]; Day 35): 6.27 ± 1.62 mM
Serum creatinine (hyperuricemia model [2]; Day 35, listed as benzbromarone): significant decrease
serum guanine deaminase activity (guanine deaminase (GuDa); Day 21): 29.46 ± 3.57^Δ U/L
serum guanine deaminase activity (guanine deaminase (GuDa); Day 21, listed as benzbromarone): significant decrease
serum guanine deaminase activity (guanine deaminase (GuDa); Day 35): 11.46 ± 4.83 U/L
serum adenosine deaminase level ([3]; Day 21): 54.22 ± 8.72 U/ml
serum adenosine deaminase level ([3]; Day 35): 97.69 ± 15.32 U/ml
serum xanthine oxidase level (xanthine oxidase (XOD); Day 21): 28.66 ± 3.75 U/L
serum xanthine oxidase level (xanthine oxidase (XOD); Day 35): 20.61 ± 2.67 U/L
body weight ([5]; Day 0, modeling period): 243.40 ± 7.63 g
body weight ([5]; Day 7, modeling period): 325.46 ± 15.10 g
body weight ([5]; Day 14, modeling period): 365.30 ± 20.19 g
body weight ([5]; Day 21, administration period): 391.83 ± 19.39 g
body weight ([5]; Day 28, administration period): 425.86 ± 22.33 g
body weight ([5]; Day 35, administration period): 433.88 ± 27.07 g
Creatinine clearance (hyperuricemia model [6]): 1.67 ± 1.18
Uric acid clearance (hyperuricemia model [6]): 0.155 ± 0.047
24-hour Urine volume (hyperuricemia model [6]; Day 35): 117.80 ± 31.17 mL
urinary pH (hyperuricemia model [6]; Day 35): 6.70 ± 0.71
UBUN (concentration of urinary urea nitrogen) (hyperuricemia model [6]; day 35): 156.36 ± 133.40 mmol/L
UCR (concentration of urinary creatinine) (hyperuricemia model [6]; day 35): 1256.25 ± 332.40 µmol/L
UUA (concentration of urinary uric acid) (hyperuricemia model [6]; day 35): 173.57 ± 56.65 µmol/L

Reference: patent publication EP3456336B1, “A CELERY SEED AND SOPHORA FLOWER BUD EXTRACT AND MEDICAL USE THEREOF” (Beijing Tianheng Junwei Pharmaceutical Tech Co., Ltd, priority 2016, dated 2017)
